Measured values as given in patent US9938322B2, “β-hairpin peptidomimetics” (priority 2013, dated 2018).
*1 amine or outer side, *2 acyl side, *3 side chain or, on linkers, in order; H or OH if unused. Where a SMILES comes first, the peptide text is derived from it. Side-chain parts run from the residue outwards. [ ]: non-standard residue; d: D form. The star is where a group is joined. Ala(4-thiazolyl) = N[C@@H](Cc1cscn1)C(=O)O; Cha = N[C@@H](CC1CCCCC1)C(=O)O; NH(3-picolyl) = c1cncc(CN*)c1; Agp = N=C(N)NC[C@H](N)C(=O)O; Chg = N[C@H](C(=O)O)C1CCCCC1; Tle = CC(C)(C)[C@H](N)C(=O)O; dDab = NCC[C@@H](N)C(=O)O; hSer = N[C@@H](CCO)C(=O)O; Orn = NCCC[C@H](N)C(=O)O; dDap = NC[C@@H](N)C(=O)O; Dab = NCC[C@H](N)C(=O)O; Dap = NC[C@H](N)C(=O)O; CO = O=C([*:1])[*:2]; X3 = O=C(C(O)CO)*; NHiPr = CC(C)N*

Tested on: human red blood cells (hRBC)
Assay: Hemolysis of human red blood cells
Format: cell-based
Details: red cells of human, 1 h, 100
Experimental: Lyophilized peptides were weighed on a Microbalance (Mettler MT5) and dissolved in sterile water to a final concentration of 1 mg/ml. Stock solutions were kept at +4° C., light protected.
The peptides were tested for their hemolytic activity against human red blood cells (hRBC). Fresh hRBC were washed three times with phosphate buffered saline (PBS) and centrifuged for 10 min at 2000×g. Compounds (100 μg/ml) were incubated with 20% hRBC (v/v) for 1 h at 37° C. and shaking at 300 rpm. The final erythrocyte concentration was approximately 0.9×10^9 cells/ml. A value of 0% and 100% cell lyses, respectively, was determined by incubation of hRBC in the presence of PBS containing 0.001% acetic acid and 2.5% Triton X-100 in H2O, respectively. The samples were centrifuged, the supernatants were 8-fold diluted in PBS buffer and the optical densities (OD) were measured at 540 nm. The 100% lyses value (OD540H2O) gave an OD540 of approximately 0.5-1.0.
Percent hemolysis was calculated as follows: (OD540peptide/OD540H2O)×100%.

Row | SMILES | Hemolysis at 100 μg/ml
1 | C[C@@H]1NC(=O)[C@H](C(C)(C)C)NC(=O)[C@H](CCN)NC(=O)[C@H](Cc2c[nH]c3ccccc23)NC(=O)[C@H](CCN)NC(=O)[C@@H](CCN)NC(=O)[C@H](CCCN)NC(=O)[C@H](CCN)NC(=O)[C@H](CC2CCCCC2)NC(=O)[C@H](CNC(=O)C(O)CO)NC(=O)[C@H](Cc2c[nH]c3ccccc23)NC(=O)[C@@H]2CCCN2C(=O)[C@H]2CCCN2C(=O)[C@H](CO)NC1=O (some centres unmarked) [compound 13] (cyclo(W[Dap](X3)[Cha][Dab][Orn][dDab][Dab]W[Dab][Tle]AS[dP]P)) | 2%
2 | C[C@@H]1NC(=O)[C@H](C(C)(C)C)NC(=O)[C@H](CCN)NC(=O)[C@H](Cc2c[nH]c3ccccc23)NC(=O)[C@H](CCN)NC(=O)[C@@H](CCN)NC(=O)[C@H](CCCN)NC(=O)[C@H](CCN)NC(=O)[C@H](CC2CCCCC2)NC(=O)[C@H](CNC(=O)[C@@H](N)[C@@H](C)O)NC(=O)[C@H](Cc2c[nH]c3ccccc23)NC(=O)[C@@H]2CCCN2C(=O)[C@H]2CCCN2C(=O)[C@H](CO)NC1=O [compound 14] (cyclo(W[Dap](Thr)[Cha][Dab][Orn][dDab][Dab]W[Dab][Tle]AS[dP]P)) | 0%
3 | CC(=O)N[C@H](C(=O)NC[C@@H]1NC(=O)[C@H](Cc2c[nH]c3ccccc23)NC(=O)[C@@H]2CCCN2C(=O)[C@H]2CCCN2C(=O)[C@H](CO)NC(=O)[C@H](C)NC(=O)[C@H](C(C)(C)C)NC(=O)[C@H](CCN)NC(=O)[C@H](Cc2c[nH]c3ccccc23)NC(=O)[C@H](CCN)NC(=O)[C@@H](CCN)NC(=O)[C@H](CCCN)NC(=O)[C@H](CCN)NC(=O)[C@H](CC2CCCCC2)NC1=O)[C@@H](C)O [compound 15] (cyclo(W[Dap]([Thr-Ac])[Cha][Dab][Orn][dDab][Dab]W[Dab][Tle]AS[dP]P)) | 1%
4 | C[C@@H]1NC(=O)[C@H](C(C)(C)C)NC(=O)[C@H](CCN)NC(=O)[C@H](Cc2c[nH]c3ccccc23)NC(=O)[C@H](CCN)NC(=O)[C@@H](CCN)NC(=O)[C@H](CCCN)NC(=O)[C@H](CCN)NC(=O)[C@H](CC2CCCCC2)NC(=O)[C@H](CNC(=O)NCc2cccnc2)NC(=O)[C@H](Cc2c[nH]c3ccccc23)NC(=O)[C@@H]2CCCN2C(=O)[C@H]2CCCN2C(=O)[C@H](CO)NC1=O [compound 16] (cyclo(W[Dap]([CO-NH(3-picolyl)])[Cha][Dab][Orn][dDab][Dab]W[Dab][Tle]AS[dP]P)) | 7%
5 | CC(C)NC(=O)NC[C@@H]1NC(=O)[C@H](Cc2c[nH]c3ccccc23)NC(=O)[C@@H]2CCCN2C(=O)[C@H]2CCCN2C(=O)[C@H](CO)NC(=O)[C@H](C)NC(=O)[C@H](C(C)(C)C)NC(=O)[C@H](CCN)NC(=O)[C@H](Cc2c[nH]c3ccccc23)NC(=O)[C@H](CCN)NC(=O)[C@@H](CCN)NC(=O)[C@H](CCCN)NC(=O)[C@H](CCN)NC(=O)[C@H](CC2CCCCC2)NC1=O [compound 17] (cyclo(W[Dap]([CO-NHiPr])[Cha][Dab][Orn][dDab][Dab]W[Dab][Tle]AS[dP]P)) | 6%
6 | C[C@@H]1NC(=O)[C@H](C(C)(C)C)NC(=O)[C@H](CCN)NC(=O)[C@H](Cc2c[nH]c3ccccc23)NC(=O)[C@H](CCN)NC(=O)[C@@H](CCN)NC(=O)[C@H](CCCN)NC(=O)[C@H](CCN)NC(=O)[C@H](CC2CCCCC2)NC(=O)[C@H](CCO)NC(=O)[C@H](Cc2c[nH]c3ccccc23)NC(=O)[C@@H]2CCCN2C(=O)[C@H]2CCCN2C(=O)[C@H](CO)NC1=O [compound 18] (cyclo(W[hSer][Cha][Dab][Orn][dDab][Dab]W[Dab][Tle]AS[dP]P)) | 3%
7 | C[C@@H]1NC(=O)[C@H](C(C)(C)C)NC(=O)[C@H](CCN)NC(=O)[C@H](Cc2c[nH]c3ccccc23)NC(=O)[C@H](CCN)NC(=O)[C@@H](CN)NC(=O)[C@H](CCCN)NC(=O)[C@H](CCN)NC(=O)[C@H](CC2CCCCC2)NC(=O)[C@H](CO)NC(=O)[C@H](Cc2c[nH]c3ccccc23)NC(=O)[C@@H]2CCCN2C(=O)[C@H]2CCCN2C(=O)[C@H](CO)NC1=O [compound 19] (cyclo(WS[Cha][Dab][Orn][dDap][Dab]W[Dab][Tle]AS[dP]P)) | 3%
8 | CC(C)NC(=O)NC[C@@H]1NC(=O)[C@H](C)NC(=O)[C@H](C(C)(C)C)NC(=O)[C@H](CCN)NC(=O)[C@H](Cc2c[nH]c3ccccc23)NC(=O)[C@H](CCN)NC(=O)[C@@H](CCN)NC(=O)[C@H](CCCN)NC(=O)[C@H](CCN)NC(=O)[C@H](CC2CCCCC2)NC(=O)[C@H](C)NC(=O)[C@H](Cc2c[nH]c3ccccc23)NC(=O)[C@@H]2CCCN2C(=O)[C@H]2CCCN2C1=O [compound 20] (cyclo(WA[Cha][Dab][Orn][dDab][Dab]W[Dab][Tle]A[Dap]([CO-NHiPr])[dP]P)) | 4%
9 | C[C@@H]1NC(=O)[C@H](C(C)(C)C)NC(=O)[C@H](CCN)NC(=O)[C@H](Cc2c[nH]c3ccccc23)NC(=O)[C@H](CCN)NC(=O)[C@@H](CCN)NC(=O)[C@H](CCCN)NC(=O)[C@H](CCN)NC(=O)[C@H](Cc2ccc(O)cc2)NC(=O)[C@H](CO)NC(=O)[C@H](Cc2ccc(O)cc2)NC(=O)[C@@H]2CCCN2C(=O)[C@H]2CCCN2C(=O)[C@H](CO)NC1=O [compound 21] (cyclo(YSY[Dab][Orn][dDab][Dab]W[Dab][Tle]AS[dP]P)) | 1%
10 | C[C@@H]1NC(=O)[C@H](C(C)(C)C)NC(=O)[C@H](CCN)NC(=O)[C@H](Cc2c[nH]c3ccccc23)NC(=O)[C@H](CCN)NC(=O)[C@@H](CCN)NC(=O)[C@H](CCCN)NC(=O)[C@H](CCN)NC(=O)[C@H](CC2CCCCC2)NC(=O)[C@H](CO)NC(=O)[C@H](Cc2cscn2)NC(=O)[C@@H]2CCCN2C(=O)[C@H]2CCCN2C(=O)[C@H](CO)NC1=O [compound 22] (cyclo([Ala(4-thiazolyl)]S[Cha][Dab][Orn][dDab][Dab]W[Dab][Tle]AS[dP]P)) | 0%
11 | C[C@@H]1NC(=O)[C@H](Cc2c[nH]c3ccccc23)NC(=O)[C@@H]2CCCN2C(=O)[C@H]2CCCN2C(=O)[C@H](CO)NC(=O)[C@H](CNC(=N)N)NC(=O)[C@H](C(C)(C)C)NC(=O)[C@H](CCN)NC(=O)[C@H](Cc2c[nH]c3ccccc23)NC(=O)[C@H](CCN)NC(=O)[C@@H](CCN)NC(=O)[C@H](CCCN)NC(=O)[C@H](CCN)NC(=O)[C@H](CC2CCCCC2)NC1=O [compound 23] (cyclo(WA[Cha][Dab][Orn][dDab][Dab]W[Dab][Tle][Agp]S[dP]P)) | 1.7%
12 | CC(C)C[C@@H]1NC(=O)[C@@H]2CCCN2C(=O)[C@H]2CCCN2C(=O)[C@H](CO)NC(=O)[C@H](C)NC(=O)[C@H](C(C)(C)C)NC(=O)[C@H](CCN)NC(=O)[C@H](Cc2c[nH]c3ccccc23)NC(=O)[C@H](CCN)NC(=O)[C@H](CCN)NC(=O)[C@H](CCCN)NC(=O)[C@H](CCN)NC(=O)[C@H](Cc2ccc(O)cc2)NC(=O)[C@H](CO)NC1=O [compound 24] (cyclo(LSY[Dab][Orn][Dab][Dab]W[Dab][Tle]AS[dP]P)) | 1%
13 | CC(C)C[C@@H]1NC(=O)[C@@H]2CCCN2C(=O)[C@H]2CCCN2C(=O)[C@H](CO)NC(=O)[C@H](C)NC(=O)[C@H](C(C)(C)C)NC(=O)[C@H](CCN)NC(=O)[C@H](Cc2c[nH]c3ccccc23)NC(=O)[C@H](CCN)NC(=O)[C@@H](CCN)NC(=O)[C@H](CCCCN)NC(=O)[C@H](CCN)NC(=O)[C@H](Cc2ccc(O)cc2)NC(=O)[C@H](CO)NC1=O [compound 25] (cyclo(LSY[Dab]K[dDab][Dab]W[Dab][Tle]AS[dP]P)) | 1%
14 | CC(C)C[C@@H]1NC(=O)[C@@H]2CCCN2C(=O)[C@H]2CCCN2C(=O)[C@H](CO)NC(=O)[C@H](C)NC(=O)[C@H](C(C)(C)C)NC(=O)[C@H](CCN)NC(=O)[C@H](Cc2c[nH]c3ccccc23)NC(=O)[C@H](CCN)NC(=O)[C@H](CCN)NC(=O)[C@H](CCCCN)NC(=O)[C@H](CCN)NC(=O)[C@H](Cc2ccc(O)cc2)NC(=O)[C@H](CO)NC1=O [compound 26] (cyclo(LSY[Dab]K[Dab][Dab]W[Dab][Tle]AS[dP]P)) | 1%
15 | COc1ccc(C[C@@H]2NC(=O)[C@H](CO)NC(=O)[C@H](CC(C)C)NC(=O)[C@@H]3CCCN3C(=O)[C@H]3CCCN3C(=O)[C@H](CO)NC(=O)[C@H](C)NC(=O)[C@H](C(C)(C)C)NC(=O)[C@H](CCN)NC(=O)[C@H](Cc3c[nH]c4ccccc34)NC(=O)[C@H](CCN)NC(=O)[C@@H](CCN)NC(=O)[C@H](CCCN)NC(=O)[C@H](CCN)NC2=O)cc1 [compound 27] (cyclo(LSY(Me)[Dab][Orn][dDab][Dab]W[Dab][Tle]AS[dP]P)) | 1%
16 | CC(C)C[C@@H]1NC(=O)[C@@H]2CCCN2C(=O)[C@H]2CCCN2C(=O)[C@H](CO)NC(=O)[C@H](C)NC(=O)[C@H](C(C)(C)C)NC(=O)[C@H](CCN)NC(=O)[C@H](Cc2c[nH]c3ccccc23)NC(=O)[C@H](CCN)NC(=O)[C@@H](CCN)NC(=O)[C@H](CCCN)NC(=O)[C@H](CCN)NC(=O)[C@H](Cc2ccccc2)NC(=O)[C@H](CO)NC1=O [compound 28] (cyclo(LSF[Dab][Orn][dDab][Dab]W[Dab][Tle]AS[dP]P)) | 2%
17 | CC(C)C[C@@H]1NC(=O)[C@@H]2CCCN2C(=O)[C@H]2CCCN2C(=O)[C@H](CO)NC(=O)[C@H](C)NC(=O)[C@H](C2CCCCC2)NC(=O)[C@H](CCN)NC(=O)[C@H](Cc2c[nH]c3ccccc23)NC(=O)[C@H](CCN)NC(=O)[C@@H](CCN)NC(=O)[C@H](CCCN)NC(=O)[C@H](CCN)NC(=O)[C@H](Cc2ccc(O)cc2)NC(=O)[C@H](CO)NC1=O [compound 29] (cyclo(LSY[Dab][Orn][dDab][Dab]W[Dab][Chg]AS[dP]P)) | 6%
